# Results as given in US10738041B2, “Ferroportin inhibitors” (Vifor (International) AG, priority 2015, dated 2020).
# Where two headings read alike, the source gives them in different places.
# Assays:
# naïve WT C57BL/6 mice = experiment: Hypoferremia in naïve mice; type: in vivo, mouse; conditions: Mus musculus, po, 3 h, read-out: Serum Iron Reduction at 3 h (%)
# Method: Female C57BL/6 mice (Janvier, France) at age of 9 weeks were fed a standard diet (Harlan Provimi Kliba 3436) and treated per os (p.o.) with compounds or the corresponding amount of vehicle at a volume of 10 ml/kg body weight. Fpn inhibitors were formulated in 0.5% methylcellulose/water or 20% cremophor EL/water and dosed p.o. in mice at 10, 30 or 100 mg/kg body weight. Three hours later, mice were pre terminally anesthetized in isoflurane chambers and blood was collected by retro-orbital bleeding. Mice were sacrificed by cervical dislocation and spleens, livers and duodena were harvested and used for biomarker analysis. All experiments have been conducted in compliance with the license approved by the responsible veterinarian authorities. Serum was isolated by centrifugation of blood into gel-containing microtainers and serum iron was determined by the MULTIGENT Iron assay (Abbott Diagnostics, 6K95). Eight mice per group were used and one-way ANOVA with Bonferroni's multiple comparison test was performed to analyze the statistical differences between the experimental groups.
# ferroportin (Fpn) = target: T1, ferroportin (Fpn) (Mus musculus, UniProt Q9JHI9); experiment: Hepcidin Internalization Assay (J774); type: cell-based; conditions: average of multiple measurements; inhibition of TMR-hepcidin (25 nM) internalization into J774 cells; read-out: J774 IC50
# T1 construct: host or cells: J774 mouse macrophage cell line, Fe(III)-NTA induced
# T1 sequence (Q9JHI9 1-570): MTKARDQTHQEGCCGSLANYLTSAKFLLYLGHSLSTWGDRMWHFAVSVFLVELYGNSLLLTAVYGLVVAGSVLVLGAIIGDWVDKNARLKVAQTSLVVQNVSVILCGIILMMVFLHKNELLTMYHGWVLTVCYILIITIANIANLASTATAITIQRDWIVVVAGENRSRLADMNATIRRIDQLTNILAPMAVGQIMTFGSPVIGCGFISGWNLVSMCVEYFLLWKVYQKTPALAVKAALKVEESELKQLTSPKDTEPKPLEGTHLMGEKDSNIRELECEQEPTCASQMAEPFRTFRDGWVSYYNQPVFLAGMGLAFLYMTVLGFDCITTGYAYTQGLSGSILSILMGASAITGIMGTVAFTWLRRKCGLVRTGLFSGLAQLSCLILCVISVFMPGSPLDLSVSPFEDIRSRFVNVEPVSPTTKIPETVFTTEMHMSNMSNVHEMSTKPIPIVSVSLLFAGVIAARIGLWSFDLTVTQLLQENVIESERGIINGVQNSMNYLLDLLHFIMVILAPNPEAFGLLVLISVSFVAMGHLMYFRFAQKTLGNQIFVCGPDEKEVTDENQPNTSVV
# How it was run: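 Inhibition of fluorescent TMR-hepcidin uptake via ferroportin was imaged in fixed J774 cells after a 2 h, 37 °C co-incubation with compound dilutions; cells were pre-cultured overnight with 200 μM Fe(III)NTA. Internalized TMR signal per cell (Sum(Mean)) was fitted as log(inhibitor) vs. response for IC50, in triplicate.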
# human Fpn = target: T2, human Fpn (Homo sapiens, UniProt Q9NP59); experiment: Biophysical Ferroportin-Hepcidin Binding Assay (fluorescence polarization); conditions: average of multiple measurements; 1 μM human Fpn, 20 nM TMR-hepcidin; read-out: FP IC50
# T2 construct: FLAG (C); made in house; host or cells: Pichia pastoris
# T2 sequence (Q9NP59 1-571): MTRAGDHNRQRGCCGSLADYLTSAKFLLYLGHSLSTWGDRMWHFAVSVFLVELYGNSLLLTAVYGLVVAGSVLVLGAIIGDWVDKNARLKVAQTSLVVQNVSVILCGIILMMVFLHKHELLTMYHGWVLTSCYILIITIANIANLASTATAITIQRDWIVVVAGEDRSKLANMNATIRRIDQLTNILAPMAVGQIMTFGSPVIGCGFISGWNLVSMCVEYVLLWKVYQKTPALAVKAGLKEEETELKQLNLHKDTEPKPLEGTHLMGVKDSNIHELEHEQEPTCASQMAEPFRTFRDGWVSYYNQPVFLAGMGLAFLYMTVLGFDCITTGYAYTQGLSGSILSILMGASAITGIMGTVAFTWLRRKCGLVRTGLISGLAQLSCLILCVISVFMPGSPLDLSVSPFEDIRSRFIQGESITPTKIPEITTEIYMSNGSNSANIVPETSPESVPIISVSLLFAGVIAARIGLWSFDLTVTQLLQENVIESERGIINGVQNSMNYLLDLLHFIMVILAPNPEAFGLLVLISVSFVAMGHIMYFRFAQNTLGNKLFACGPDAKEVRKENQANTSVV
# How it was run: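 FP readout: a dose-dependent drop in TMR-hepcidin polarization (mP, from parallel and perpendicular emission) marked blocked binding to FLAG-tagged human Fpn purified from Pichia pastoris. Final levels were 1 μM Fpn and 20 nM TMR-hepcidin, with compound dilutions in duplicate, incubated 90 min at room temperature.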
# human Fpn-GFP fusion = target: T3, human Fpn-GFP fusion (Homo sapiens, UniProt Q9NP59); experiment: Inhibition of ferroportin mediated iron export activity in an iron response assay (BLAzer); type: cell-based; conditions: average of multiple measurements; HEK-293 cell line #354; read-out: BLAzer EC50
# T3 construct: expressed in transfected cells; host or cells: HEK-293 cell line #354 (derivative of HEK-293 Tet-ON Advanced, Clontech)
# T3 sequence (Q9NP59 1-571): T2 sequence (Q9NP59 1-571)
# Text: Intracellular iron levels are indirectly measured in this assay by monitoring the activity of a beta-lactamase (BLA) reporter gene fused to the human ferritin promoter and the associated iron regulatory element (IRE) contained within the 5′ untranslated region of the ferritin mRNA. Expression of ferroportin (Fpn) in such a cell line leads to iron efflux and lower iron levels as reflected by lower activity of the reporter gene. On the other hand, inhibition of Fpn-mediated iron efflux results in elevated cellular iron levels which is detected as increased reporter gene activity. Small molecular weight Fpn inhibitor compounds were tested for dose-dependent effects in this in vitro iron response assay as described below.
# The HEK-293 cell line #354 was generated by stable integration of (i) a human Fpn-GFP fusion construct inserted in a derivative of the doxycycline-inducible pTRE-Tight-BI plasmid (Clontech, Cat. 631068) and (ii) a human ferritin promoter-BLA reporter gene into a derivative of the HEK-293 Tet-ON Advanced cell line (Clontech). […] After overnight incubation, 10 μl/well of dilution series of the test compounds were added in quadruplicates and plates were further incubated overnight at 37° C. with 5% CQ. Cells were washed 3 times with HBSS leaving 25 μl per well. BLA activity was detected by adding 5 μl/well of the GeneBlazer reagent CCF4-AM (Invitrogen, Cat. K1085) to the cells. After incubation of the plates in the dark at 18° C. for 60 min., blue and green fluorescence signals were measured in a Safre2 fluorescence plate reader (Tecan) with excitation at 410 nm and emissions at 458 nm (blue) and 522 nm (green). The ratio of blue/green fluorescence as a measure for BLA activity was calculated and EC50 values were determined with the calculated blue/green fluorescence ratios as described for the hepcidin internalization assay.
# [1] = Dose 10 mg/kg p.o., naïve WT C57BL/6 mice, relative to vehicle
# [2] = Dose 30 mg/kg p.o., naïve WT C57BL/6 mice, relative to vehicle
# [3] = Dose 100 mg/kg p.o., naïve WT C57BL/6 mice, relative to vehicle
Structure (SMILES),inhibition in vivo at 10 mg/kg (naïve WT C57BL/6 mice),inhibition in vivo at 30 mg/kg (naïve WT C57BL/6 mice),inhibition in vivo at 100 mg/kg (naïve WT C57BL/6 mice),inhibition in vivo at 10 mg/kg (naïve WT C57BL/6 mice; [1]),inhibition in vivo at 30 mg/kg (naïve WT C57BL/6 mice; [2]),inhibition in vivo at 100 mg/kg (naïve WT C57BL/6 mice; [3]),IC50 (ferroportin (Fpn)),IC50 (human Fpn),EC50 (human Fpn-GFP fusion)
O=C(NCc1ncccc1F)c1cn(CCNCCc2nc3ccccc3[nH]2)nn1 [compound 277],6%,21%,54%,–,–,–,–,–,–
O=C(NCc1ncccc1F)c1csc(C2CN(CCc3nc4ccccc4[nH]3)C2)n1 [Example 193],–,–,–,13%,11%,31%,287 nM,–,–
O=C(NCc1ccccn1)c1csc(CCNCCc2nc3ccccc3[nH]2)n1 [Example 58],–,–,–,20%,30%,40%,10 nM,–,–
O=C(NCc1ccccn1)c1coc(CCNCCc2nc3ccccc3[nH]2)n1 [Example 171],–,–,–,10%,42%,61%,26 nM,–,–
O=C(NCc1cccnn1)c1csc(CCNCc2nc3ccccc3[nH]2)n1 [Example 87],–,–,–,–,–,–,190 nM,2250 nM,16600 nM
O=C(NCc1ccccc1)c1csc(CCNCc2nc3cc(Cl)ccc3[nH]2)n1 [Example 52],–,–,–,–,–,–,340 nM,1360 nM,2080 nM
O=C(NCc1ccncc1F)c1csc(CCNCc2nc3ccccc3[nH]2)n1 [Example 89],–,–,–,–,–,–,89 nM,922 nM,5050 nM
O=C(NCc1ncccc1F)c1cc(CCNCc2nc3ccccc3[nH]2)ccn1 [compound 232],–,–,–,–,–,–,1900 nM,267 nM,12000 nM
O=C(NCc1ccccc1F)c1csc(CCNCc2nc3ccccc3[nH]2)n1 [Example 65],–,–,–,–,–,–,850 nM,950 nM,32300 nM
O=C(NCCCCNCc1nc2ccccc2[nH]1)NCc1ncccc1F [compound 197],–,–,–,–,–,–,610 nM,550 nM,18100 nM
O=C(NCc1ncccc1Cl)c1nc(CCNCc2nc3ccccc3[nH]2)sc1Cl [Example 159],–,–,–,4%,26%,60%,91 nM,–,–
O=C(NCc1ccccc1)c1cccc(CCNCc2nc3ccccc3[nH]2)c1 [Example 67],–,–,–,–,–,–,530 nM,3400 nM,33500 nM
O=C(NCc1ncco1)c1csc(CCNCc2nc3ccccc3[nH]2)n1 [Example 85],–,–,–,–,–,–,29 nM,1870 nM,18700 nM
Cc1ccc(F)c(CNC(=O)c2csc(CCNCc3nc4ccccc4[nH]3)n2)n1 [Example 79],–,–,–,–,–,–,37 nM,820 nM,840 nM
COc1cccnc1CNC(=O)c1csc(CCNCc2nc3ccccc3[nH]2)n1 [Example 59],–,–,–,–,–,–,50 nM,270 nM,1380 nM
Cc1cccc(CNC(=O)c2csc(CCNCc3nc4ccccc4[nH]3)n2)n1 [Example 42],–,–,–,–,–,–,600 nM,2170 nM,36300 nM
Cc1ccc(CNC(=O)c2csc(CCNCc3nc4ccccc4[nH]3)n2)nn1 [Example 93],–,–,–,–,–,–,530 nM,1030 nM,20600 nM
Cc1c(CNC(=O)c2csc(CCNCc3nc4ccccc4[nH]3)n2)cnn1C [Example 100],–,–,–,–,–,–,460 nM,1420 nM,6560 nM
O=C(NCc1ccccc1)c1csc(CCNCc2ccncn2)n1 [Example 27],–,–,–,20%,30%,45%,38400 nM,–,–
O=C(NCc1ccccc1)c1csc(CCNCCc2nc3ccccc3[nH]2)n1 [Example 29],–,–,–,–,–,–,510 nM,136 nM,2530 nM
Cn1ccnc1CNC(=O)c1csc(CCNCc2nc3ccccc3[nH]2)n1 [Example 64],–,–,–,–,–,–,130 nM,1240 nM,4530 nM
O=C(NCc1ncccc1F)c1cncc(CCNCCc2nc3c(F)cccc3[nH]2)c1 [compound 246],–,–,–,–,–,–,276 nM,263 nM,12900 nM
O=C(NCc1ccccc1)c1csc(CCNCc2nc3cc(C(F)(F)F)ccc3[nH]2)n1 [Example 51],–,–,–,–,–,–,360 nM,530 nM,4470 nM
Cn1ccnc1CNCCc1nc(C(=O)NCc2ccccc2)cs1 [Example 2],–,–,–,–,–,–,6300 nM,10600 nM,1640 nM
O=C(NCc1ncccc1F)c1cncc(CCNCc2nc3ccccc3[nH]2)c1 [compound 221],–,–,–,–,–,–,360 nM,147 nM,16900 nM
